Assay results published in patent US20220305115A1 (JANSSEN SCIENCES IRELAND UNLIMITED COMPANY, priority 2019, published 2022).

Columns and labels:
Format in all cases: cell-based
[1] = Off-target cytotoxicity, Huh-7 cells (Cell Titer Glo, 5 days); conditions: human, Huh-7 cells; Huh-7, five days incubation, intracellular ATP; read-out: CC50 HEH7 CTG 50
Excerpt: (§1) To assess potential off-target toxicity of certain compounds disclosed herein, the in vitro cytotoxicity of those compounds was profiled using a panel of 5 cell lines with various tissue origins. Compound cytotoxicity was examined in hepatoma-derived Huh-7 and HepG2 cells, prostate carcinoma-derived PC-3 cells, lymphoma derived MT-4 cells and a normal diploid lung cell line MRC-5. HepG2 and PC-3 cells used were adapted to grow in glucose-free galactose-containing medium. These cells have a relatively higher sensitivity to inhibitors of mitochondrial oxidative phosphorylation compared to the same cells maintained in standard glucose-containing culture medium (Marroquin et al., Toxicol. Sci. 2007; 97 (2):539-47). Cell viability was determined by measuring intracellular ATP levels following five days of continuous incubation with test compounds.
(§2) The human hepatoma Huh-7 cell line was obtained from ReBLikon GmbH (Mainz, Germany) {20879}. The MT-4 cell line (HTLV-1 transformed, human T lymphoblastoid cells) was obtained from the NIH AIDS Reagent program (Bathesda, Md.). The human hepatoblastoma cell line HepG2, human prostate carcinoma cell line PC-3, and normal fetal lung derived MRC-5 cells were obtained from the American Type Culture Collection (ATCC, Manassas, Va.).
(§3) Huh-7 cells were maintained in Dulbecco's Modified Eagle Medium (DMEM) supplemented with 10% fetal bovine serum (FBS, Hyclone, Logan, Utah), 1% non-essential amino acids (Gibco, Carlsbad, Calif.). PC-3 and HepG2 cells were adapted to grow in 0.2% galactose-containing, glucose-free Dulbecco's Modified Eagle Medium (DMEM) supplemented with 10% fetal bovine serum (FBS, Hyclone, Logan, Utah), 1% non-essential amino acids (Gibco, Carlsbad, Calif.), 1% Pyruvate (Cellgro), 1% Glutamax (Invitrogen, Carlsbad, Calif.). Galactose-adapted cells were maintained in the same culture medium. MRC-5 cells were maintained in Eagle's Minimum Essential Medium (EMEM) supplemented with 10% fetal bovine serum (FBS, Hyclone, Logan, Utah). MT-4 cells were maintained in RPMI-1640 supplemented with 10% fetal bovine serum (FBS, Hyclone, Logan, Utah). All cell culture media were also supplemented with 100 Units/mL penicillin, 100 μg/mL streptomycin (Gibco).
(§4) Using a Biotek uFlow Workstation (Biotek, Winooski, Vt.), 1500 HepG2, 1500 PC-3, 500 Huh7 or 1500 MRC-5 cells in 90 μL of culture media were dispensed into each well of black polystyrene tissue culture-treated 384-well plates. Plated cells were incubated for 24 hours in an incubator at 37° C., 5% CO2 and 90% humidity. Compound serial dilutions were performed in 100% DMSO in 384-well polypropylene (high recovery) plates on a Biomek FX Workstation (Beckman Coulter, Fullerton, Calif.). After 3-fold serial dilutions, 0.4 μL of compounds were transferred into 384-well plates containing cells using a Velocity 11 system equipped with a Bravo 384-well pipettor. The DMSO concentration in the final assay plates was 0.44% (v/v). Cells were incubated with compound(s) for five days at 37° C. Puromycin (44 μM final concentration) and DMSO (0.44%, v/v) were used as a positive and negative controls, respectively
(§5) At the end of the incubation period the cytotoxicity assay was performed as follows: Media from 384-well cell culture plates were aspirated with a Biotek EL405 plate-washer (Biotek) and cells were washed with 100 μL PBS once. Twenty microliters of Cell Titer Glo (Promega, Madison, Wis.) was added to each well of the plates with a Biotek uFlow liquid dispenser. Plates were incubated for 15 minutes at room temperature before luminescence was measured with a Perkin Elmer Envision Plate Reader (Perkin Elmer, Waltham, Mass.).
(§6) CC50 values were defined as the compound concentration that caused a 50% decrease in luminescence signal, and were calculated by non-linear regression using Pipeline Pilot software by applying a four parameter fit equation (Accelrys, San Diego, Calif.). Individual CC50 values are listed as μM concentrations.

[2] = Off-target cytotoxicity, MRC-5 cells (Cell Titer Glo, 5 days); conditions: human, MRC-5 cells; MRC-5, five days incubation, intracellular ATP; read-out: CC50 MHCS CTG 50
Excerpt: as §1, §2, §3, §4, §5, §6

[3] = Off-target cytotoxicity, galactose-adapted PC-3 cells (Cell Titer Glo, 5 days); conditions: human, galactose-adapted PC-3, five days incubation, intracellular ATP, read-out: CC50 GALFC3 CTG 50
Excerpt: as §1, with “These cells have a relatively higher sensitivity to inhibitors of mitochondrial oxidative phosphorylation compared to the same cells maintained in standard glucose-containing culture medium (Marroquin et al., Toxicol. Sci. 2007; 97 (2):539-47).” left out
as §2, with “The” for “The human hepatoma Huh-7 cell line was obtained from ReBLikon GmbH (Mainz, Germany) {20879}. The”
as §3, with “MT-4 cells were maintained in RPMI-1640 supplemented with 10% fetal bovine serum (FBS, Hyclone, Logan, Utah).” left out
as §4, with “C.” for “C. Puromycin (44 μM final concentration) and DMSO (0.44%, v/v) were used as a positive and negative controls, respectively”
as §5

[4] = Off-target cytotoxicity, galactose-adapted HepG2 cells (Cell Titer Glo, 5 days); conditions: human, galactose-adapted HepG2, five days incubation, intracellular ATP, read-out: CC50 GALHEPG2 CTG 50
Excerpt: as §1, §2, §3, §4, §5, §6

[5] = Off-target cytotoxicity, MT-4 cells (Cell Titer Glo, 5 days); conditions: human, MT-4, five days incubation, intracellular ATP, read-out: CC50 (MT4)
Excerpt: as §1, with “These cells have a relatively higher sensitivity to inhibitors of mitochondrial oxidative phosphorylation compared to the same cells maintained in standard glucose-containing culture medium (Marroquin et al., Toxicol. Sci. 2007; 97 (2):539-47).” left out
as §2, with “The” for “The human hepatoma Huh-7 cell line was obtained from ReBLikon GmbH (Mainz, Germany) {20879}. The”
as §3, with “MT-4 cells were maintained in RPMI-1640 supplemented with 10% fetal bovine serum (FBS, Hyclone, Logan, Utah).” left out
For the MT-4 cytotoxicity assay, 0.4 μL of serially diluted compounds were added to 40 μl of cell maintenance media in 384-well black, solid bottom plate using a Biomek FX workstation (Beckman Coulter). Two thousand cells in 35 μL were added to each well using a Biotek uFlow Workstation (Biotek). […] Assay plates were incubated for five days at 37° C. in an incubator set at 5% CO2 and 90% humidity. After five days, 22 μL of Cell Titer Glo reagent (Promega) was added to the assay plates with a Biotek uFlow Workstation. Plates were subsequently placed on a Perkin Elmer Envision Plate Reader for five minutes before the luminescence signal was read.

MRC-5 cells = assay: Off-target cytotoxicity, MRC-5 cells (Cell Titer Glo, 5 days); conditions: MRC-5, five days incubation, intracellular ATP; read-out: CC50 MHCS CTG 50
Excerpt: as §1, §2, §3, §4, §5, §6

Huh-7 cells = assay: Off-target cytotoxicity, Huh-7 cells (Cell Titer Glo, 5 days); conditions: Huh-7, five days incubation, intracellular ATP; read-out: CC50 HEH7 CTG 50
Excerpt: as §1, §2, §3, §4, §5, §6

`CCCC[C@H](CO)Nc1nc(N)nc2cccnc12` [Compound 15, (R)-2-((2-aminopyrido[3,2-d]pyrimidin-4-yl)amino)hexan-1-ol] showed a CC50 at 5 days [1] of 19.7 µM, a CC50 at 5 days [2] of 7.6 µM and a CC50 at 5 days [3] of 0.69 µM. For the same compound, the CC50 at 5 days [4] was 1.23 µM and the CC50 at 5 days [5] was 8.62 µM.

Work on `CCCC[C@@](C)(Nc1nc(N)nc2cc(F)cnc12)C(C)O` (single isomer, unassigned) [Compound 95] yielded a CC50 at 5 days [1] of 31.3 µM, a CC50 (MRC-5 cells) of 44.4 µM and a CC50 at 5 days [3] of 16.8 µM. It also gave a CC50 at 5 days [4] of 28.1 µM and a CC50 at 5 days [5] of 44.1 µM.

`CCCC[C@H](CO)Nc1nc(N)nc2cc(F)cnc12` [Compound 44, (R)-2-((2-amino-7-fluoropyrido[3,2-d]pyrimidin-4-yl)amino)hexan-1-ol] showed a CC50 at 5 days [1] of 9.64 µM, a CC50 at 5 days [2] of 3.72 µM and a CC50 at 5 days [3] of 0.52 µM. For the same compound, the CC50 at 5 days [4] was 1.07 µM and the CC50 at 5 days [5] was 1.97 µM.

`CCCC[C@](CO)(Nc1nc(N)nc2cccnc12)C(F)(F)F` [Compound 93, (R)-2-((2-aminopyrido[3,2-d]pyrimidin-4-yl)amino)-2-(trifluoromethyl)hexan-1-ol] gave a CC50 (Huh-7 cells) of 44.4 µM, a CC50 at 5 days [2] of 38.9 µM and a CC50 at 5 days [3] of 3.63 µM. For the same compound, the CC50 at 5 days [4] was 7.73 µM and the CC50 at 5 days [5] was 18.6 µM.

Compound `CCCC[C@](C)(CNC(C)=O)Nc1nc(N)nc2cc(F)cnc12` [Compound 101, (R)—N-(2-((2-amino-7-fluoropyrido[3,2-d]pyrimidin-4-yl)amino)-2-methylhexyl)acetamide] has a CC50 (Huh-7 cells) of 44.4 µM, a CC50 (MRC-5 cells) of 44.4 µM and a CC50 at 5 days [3] of 44.4 µM. The CC50 at 5 days [4] was ≥ 44.4 µM and the CC50 at 5 days [5] was 56.6 µM.

For `CCCC[C@@H](Nc1nc(N)nc2cc(F)cnc12)C(O)CF` (stereo partly drawn) [Compound 102, (3R)-3-((2-amino-7-fluoropyrido[3,2-d]pyrimidin-4-yl)amino)-1-fluoroheptan-2-ol], the CC50 (Huh-7 cells) was 44.4 µM, the CC50 (MRC-5 cells) was 44.4 µM and the CC50 at 5 days [3] was 19.1 µM. The CC50 at 5 days [4] was 27.4 µM and the CC50 at 5 days [5] was 57.1 µM.

Work on `CCCC[C@](C)(CNC(C)=O)Nc1nc(N)nc2cccnc12` [Compound 61] yielded a CC50 (Huh-7 cells) of 44.4 µM, a CC50 (MRC-5 cells) of 44.4 µM and a CC50 at 5 days [3] of 44.4 µM. For the same compound, the CC50 at 5 days [4] was ≥ 44.4 µM and the CC50 at 5 days [5] was 212 µM.

In the case of `CCCC[C@](C)(CO)Nc1nc(N)nc2cc(F)cnc12` [Compound 98, (R)-2-((2-amino-7-fluoropyrido[3,2-d]pyrimidin-4-yl)amino)-2-methylhexan-1-ol], the CC50 at 5 days [1] is reported as 21.9 µM, the CC50 at 5 days [2] is reported as 24.4 µM and the CC50 at 5 days [3] is reported as 4.53 µM. The CC50 at 5 days [4] was 6.7 µM and the CC50 at 5 days [5] was 16.2 µM.

In the case of `CCCC[C@@](C)(CO)Nc1nc(N)nc2cc(F)cnc12` [Compound 64, (S)-2-((2-amino-7-fluoropyrido[3,2-d]pyrimidin-4-yl)amino)-2-methylhexan-1-ol], the CC50 at 5 days [1] is reported as 10.4 µM, the CC50 at 5 days [2] is reported as 6.97 µM and the CC50 at 5 days [3] is reported as 1.99 µM. The CC50 at 5 days [4] was 3.56 µM and the CC50 at 5 days [5] was 6.79 µM.
